Values joined by “and” are separate entries in the source; they are usually repeats but may differ in a detail not shown here. Identical values can stand only once. Like-named read-outs stand apart in the source and are kept apart here.
Key:
[1] = In vitro skin model irradiation absorption (integrating sphere transmission spectra, Vitro-skin); format: physicochemical; settings: for effect of prolonged contact with the skin model on absorption: 10, 15 or 20 minutes on Vitro-skin; for effect of prolonged contact with the skin model on absorption / absorption in the 375-490 nm range: FIGS. 7A-C; for absorption in the 375-490 nm range: Vitro-skin skin model
Description: The in vitro method of Springsteen was used (Springsteen et al., 1999, Analytica Chimica Acta, 380, p 155-164). Vitro-skin was used as the skin simulator and Miglyol (Miglyol 812F Neutraloel CHG.040906) or ethyl lactate (Sigma Aldrich) was used as the solvent. The tests were performed with a Varian Cary 300 Conc UV-Visible Spectrophotometer (with an integrating sphere). Sarcinaxanthin (prepared as described in Example 2) and the other carotenoids (Sigma Aldrich) were tested at various concentrations and immediately on application to the skin model or 10-20 minutes post-application.
FIGS. 7A-C show the irradiation absorption achieved by β-carotene (A), sarcinaxanthin (B) and zeaxanthin (C) at the concentrations indicated. The presented graphs also show the effects of the diluent on sarcinaxanthin absorption (FIG. 7B) and the effect of prolonged contact with the skin at 10, 15 or 20 minutes as indicated on the Figures. The results were compared to a conventional SPF 60 sun lotion and the use of diluent alone.

[2] = UV/VIS absorption maxima by HPLC with diode array detector; format: physicochemical; settings: carotenoids dissolved in MeOH, HPLC on Zorbax C18 column
Description: LC-MS analyses were performed on an Agilent Ion Trap SL mass spectrometer equipped with an Agilent 1100 series HPLC system. The HPLC system was equipped with a diode array detector (DAD) which recorded UV/VIS spectra in the range from 200-650 nm. Two HPLC protocols were used for the analysis in this work. A high throughput protocol for a fast quantitative determination of known carotenoids was used as follows; the carotenoids were eluted isocratically in MeOH for 5 min. A Zorbax rapid resolution SB RP C18 column with dimension 2.1*30 mm was used for the analyses. Column flow was kept at 0.4 mL/min and 10 μL extract was injected for each run. For detailed qualitative carotenoid separation a Zorbax SB RP C18 with dimension 2.1*150 mm was used. The carotenoids were eluted isocratically in MeOH/Acetonitrile (7:3) for 25 minutes. The column flow was 250 μl/min and 10 or 20 μL sample was injected depending on the concentration.

[3] = side-by-side comparison, ethyl lactate as diluent, immediately vs after 15 minutes, FIGS. 8A and B

effect of prolonged contact with the skin model on absorption [1] | λmax (nm) in the HPLC eluent [2] | Compound | stability of absorption after 15 minutes on the skin model [1] | absorption in the 375-490 nm range [1] | stability of absorption after 15 minutes on the skin model [1, 3]
– | 445 nm and 470 nm and 501 nm | Lycopene | – | – | –
– | 414 nm and 438 nm and 467 nm | C=C1CC[C@H](C/C=C(\C)CO)C(C)(C)[C@@H]1/C=C/C(C)=C/C=C/C(C)=C/C=C/C=C(C)/C=C/C=C(C)/C=C/[C@@H]1C(=C)CC[C@H](C/C=C(\C)CO[C@@H]2O[C@H](CO)[C@@H](O)[C@H](O)[C@H]2O)C1(C)C [Sarcinaxanthin monoglucoside] | – | – | –
loss of absorption | – | CC1=C(/C=C/C(C)=C/C=C/C(C)=C/C=C/C=C(C)/C=C/C=C(C)/C=C/C2=C(C)CCCC2(C)C)C(C)(C)CCC1 [β-carotene] | – | only modest absorption | unstable and lose most of their absorption properties in the relevant range

Further lines, the compound ahead of its results:

Compound | effect of prolonged contact with the skin model on absorption [1] | λmax (nm) in the HPLC eluent [2] | stability of absorption after 15 minutes on the skin model [1] | absorption in the 375-490 nm range [1] | stability of absorption after 15 minutes on the skin model [1, 3]
CC1=C(/C=C/C(C)=C/C=C/C(C)=C/C=C/C=C(C)/C=C/C=C(C)/C=C/C2=C(C)C[C@@H](O)CC2(C)C)C(C)(C)C[C@H](O)C1 [zeaxanthin] | loss of absorption | – | unstable and lose most of their absorption properties in the relevant range | only modest absorption | –
C=C1CCC(C/C=C(\C)CO[C@@H]2O[C@H](CO)[C@@H](O)[C@H](O)[C@H]2O)C(C)(C)C1/C=C/C(C)=C/C=C/C(C)=C/C=C/C=C(C)/C=C/C=C(C)/C=C/C1C(=C)CCC(C/C=C(\C)CO[C@@H]2O[C@H](CO)[C@@H](O)[C@H](O)[C@H]2O)C1(C)C (stereo partly shown) [Sarcinaxanthin diglucoside] | – | 414 nm and 438 nm and 467 nm | – | – | –
C=C1CC[C@H](C/C=C(\C)CO)C(C)(C)[C@@H]1/C=C/C(C)=C/C=C/C(C)=C/C=C/C=C(C)/C=C/C=C(C)/C=C/[C@@H]1C(=C)CC[C@H](C/C=C(\C)CO)C1(C)C [sarcinaxanthin] | – | 414 nm and 438 nm and 467 nm | – | strong absorption | absorption appears unaffected by the prolonged contact
CC1=CCC(C/C=C(\C)CO)C(C)(C)C1/C=C/C(C)=C/C=C/C(C)=C/C=C/C=C(C)/C=C/C=C(C)/C=C/C1C(C)=CCC(C/C=C(\C)CO)C1(C)C (stereo not shown) [Decaprenoxanthin] | – | 414 nm and 438 nm and 467 nm | – | – | –
